# Experimental data: paper PMC6132687, “Stem cells are the most sensitive screening tool to identify toxicity of GATA4-targeted novel small-molecule compounds” (Archives of Toxicology, 2018)
# pIC50: −log10 of the molar value.
# How the values were obtained:
# [1] = tested on: GATA4–NKX2-5 transcriptional synergy; assay: Luciferase reporter assay of GATA4–NKX2-5 synergistic gene activation in COS-1 cells; assay type: cell-based, African green monkey; conditions: 24 h treatment, normalized to DMSO
# Description: COS-1 cells were used to investigate the compound effects on GATA4–NKX2-5 synergistic gene activation using a luciferase reporter assay (Kinnunen et al. [2015]). Toxicity profiling was carried out in eight cell types: the H9c2 myoblast cell line, NRVCs, CFs, mESCs, MEFs, mESC derivatives from day 5 embryoid bodies (D5EBs), hiPSCs and hiPSC-CMs. All cell cultures were maintained at 37 °C in a humidified atmosphere of 5% carbon dioxide (CO2) and the regular growth medium was used for compound exposures. Cell culture methods and cardiomyocyte differentiation from human pluripotent stem cells are described in Supplementary Information.
# The empty expression plasmid MT2 (pMT2) and mouse Gata4 expressing pMT2-Gata4 plasmids were gifts from D. B. Wilson (Department of Pediatrics, St. Louis Children’s Hospital) (Arceci et al. [1993]). The luciferase reporter plasmid pGL3-3xHA containing three Nkx2-5 high-affinity binding sites has been described previously (Kinnunen et al. [2015]). To create mouse Nkx2-5 expressing pMT2-Nkx2-5, the cDNA was cloned from pFLCI-Nkx2-5 (clone D330001C20, Imagenes), which was a kind gift from R. Kerkelä (University of Oulu, Finland), with primers containing the EcoRI restriction site (forward: 5′-[…]-3′ and reverse 5′-[…]-3′) and ligated to pMT2 EcoRI site. The correct clone was identified by digestion with specific restriction enzymes and the sequence was verified by DNA sequencing (DNA Sequencing and Genomics Laboratory, Institute of Biotechnology, University of Helsinki, Finland).
# COS-1 cells grown on 96-well plates were transfected with the luciferase reporter plasmid pGL3-3xHA (100 ng/well) and equal amounts of expression vectors pMT2-Gata4 and pMT2-Nkx2-5 (total of 50 ng/well) using Fugene 6 (Promega) at a reagent:DNA ratio of 3:1. Cells transfected with either pMT2, pMT2-Gata4 or pMT2-Nkx2-5 were used to confirm synergistic transactivation of the reporter gene in all experiments. After 6 h of transfection, the cells were treated with compounds or vehicle (0.1% dimethyl sulfoxide, DMSO) and the luminescence was measured 24 h later using Neolite Reporter Gene Assay System (PerkinElmer, Turku, Finland) according to manufacturer’s instructions and Victor2 plate reader (PerkinElmer, Turku, Finland). Each compound was tested in three technical replicates in at least two independent experiments.
# A luciferase reporter assay with an artificial promoter containing three high-affinity binding sites for NKX2-5 was used to evaluate the effects of the compounds on GATA4–NKX2-5 transcriptional synergy (Kinnunen et al. [2015]). We have previously shown that while GATA4 alone induces only minimal activation of this promoter, it strongly potentiates NKX2-5-mediated transactivation (Kinnunen et al. [2015]; Välimäki et al. [2017]).
# hiPSCs = assay: MTT assay in hiPSCs; assay type: cell-based, human; conditions: for pIC50: Homo sapiens, 24-h exposure, read-out: IC50 (hiPSC viability)
# Description: The cells were exposed to the test compounds for 24 h and cytotoxicity was quantified with MTT and LDH assays as described previously (Talman et al. [2011]). For the determination of cell membrane integrity, 50 µl of medium from each well was transferred onto a new 96-well plate followed by addition of 50 µl of substrate solution containing 1.3 mM β-nicotinamide adenine dinucleotide, 660 µM iodonitrotetrazolium, 54 mM L(+)-lactic acid, 280 µM phenazine methosulphate and 0.2 M Tris–HCl (pH 8.0). After a 30-min incubation, the reaction was stopped by adding 50 µl of 1 M acetic acid to each well and absorbance was measured at 490 nm using Victor2 plate reader (PerkinElmer, Turku, Finland). Spontaneous LDH release was measured from untreated cells, maximal LDH release from cells lysed with 0.9% Triton X-100 and background absorbance was measured from wells without cells. After background extraction, cytotoxicity was calculated as follows: cytotoxicity (%) = [(sample − spontaneous LDH release)/(maximal LDH release − spontaneous LDH release)] × 100. For quantification of metabolic activity, 3-(4,5-dimethylthiazol-2-yl)-2,5-diphenyltetrazolium bromide (MTT) was added to the cells at a final concentration of 0.5 mg/ml followed by 2 h incubation in cell culture conditions. The medium was then aspirated and formazan crystals were solubilized in DMSO. Absorbance was measured at 550 nm and absorbance at 650 nm was subtracted as background. […]
# Human pluripotent stem cells (hiPSCs): The iPS(IMR90)-4 line (Yu et al. 2007) was purchased from WiCell (Madison, Wisconsin, USA). The cells were cultured in Essential 8 ™ medium (E8) on 6-well plates coated with Matrigel® (1:50) and passaged 1:15 approximately every four days. The cells were dissociated using Versene®, resuspended in E8 containing 10 µM ROCK inhibitor (Y-27632) and seeded at 10,000 cells/well (cytotoxicity assays) or 5,000 cells/well (high-content imaging) in Matrigel®-coated 96-well plates. The cells were incubated overnight in standard conditions prior to compound addition. […]
# 1640 without glucose with B-27 supplement in order to purify cardiomyocytes. From day 15 onwards the cells were maintained in RPMI 1640 supplemented with B-27 (RB+ins). Beating hiPSC-CMs were dissociated between days 15 and 22 by incubating them in cell dissociation solution containing 40% enzyme-free cell dissociation buffer, 40% RPMI 1640 and 20% trypsin-EDTA (final trypsin concentration 0.01%) for 7–8 min, whereafter the cells were collected and trypsin was inactivated in RB+ins supplemented with 10% FBS. After centrifugation the cells were suspended in RB+ins with 10% FBS containing 10 µM ROCK inhibitor and seeded at 15,000 cells/well (cytotoxicity assays) or 20,000 cells/well (high content analysis) in gelatin-coated 96-well plates. The cells were let to attach for 2 days at 37 °C in standard conditions, whereafter the compounds were added in RB+ins. In general, the differentiation yielded an almost pure (>95%) cardiomyocyte culture.
# Syntheses and characterization of compounds
# Materials and general procedures. All reagents were acquired from Sigma-Aldrich (Schnelldorf, Germany) and Enamine (Kiev, Ukraine), and were used without further purification. All reactions in anhydrous solvents were conducted in oven-dried glassware under anhydrous argon. Thin-layer chromatography (TLC) was performed using Silica Gel 60 F254 (Merck) and Silica Gel 60 NH2 F254s aluminium sheets (Merck), visualized by UV illumination and stained with ninhydrin in EtOH (1.5% w/v). Microwave reactions were performed with a Biotage Initiator+ Robot Eight microwave (Uppsala, Sweden). Column chromatography was performed with an automated high performance flash chromatography Biotage Sp4-system or with a Isolera Spektra One-system (Uppsala, Sweden) using a 0.1-mm path length flow cell UV-detector/recorder module (fixed wavelength 254 nm) for the […] or a variable UV-VIS (200-800 nm) photodiode array detector for the Isolera Spektra One- […]
Structure (SMILES),effect on GATA4- and NKX2-5-induced gene activation (luciferase reporter activity) [1],"reduction in viability (hiPSCs; hiPSCs, 24 h, 30 µM)",pIC50 (hiPSCs),"reduction in cell viability (hiPSCs; hiPSCs, 24 h, at ≥ 3 µM)","sensitivity of cell type to compound (viability) (hiPSCs; hiPSCs, 24 h)"
CCN(CC)c1ccc(NC(=O)c2c(C)noc2-c2cc(C)on2)cc1 [3i-1047],only a weak effect,38–45%,,,
CCN(CC)c1ccc(NC(=O)c2c(-c3ccccc3)noc2C)cc1 [3i-1000],inhibitory effect,,5.84,93–94%,
COc1ccc(-c2cc(N)nn2C(=O)c2c(-c3ccccc3)noc2C)cc1 [3i-1229],only a weak effect,,5.68,,sensitive
CCN(CC)c1ccc(NC(=O)c2cc(C)oc2-c2ccccc2)cc1 [3i-1148],inhibitory effect,,6.52,,sensitive
CCC(=O)N(Cc1ccc(N(CC)CC)cc1)c1c(-c2ccccc2)noc1C [3i-1120],inhibitory effect,,6.22,,sensitive
